# Publication PMC9305971, “Development of [^18F]AmBF3 Tetrazine for Radiolabeling of Peptides: Preclinical Evaluation and PET Imaging of [^18F]AmBF3-PEG7-Tyr^3-Octreotide in an AR42J Pancreatic Carcinoma Model” (Bioconjugate Chemistry, 2022)
# Where two headings read alike, the source gives them in different places.
# How the values were obtained:
# [1] = Hydrolytic stability in 0.01 M PBS / formulated solution (radio-HPLC); assay type: physicochemical; conditions: 4% ethanol-0.01 M PBS (pH 7.4), several time points up to 6 h
# Description: (§1) Lipophilicity was determined with the shake-flask method as a distribution coefficient between 0.01 M PBS and octanol. Purified radiotracer [^18F]6 (10 μL, ∼200 kBq, 1.5 nmol), [^18F]14 (20 μL, ∼260 kBq, 125 pmol), or [^18F]15 (20 μL, 144 kBq, 67 pmol) in a polypropylene tube containing 1500–2000 μL of each in a 1:1 mixture (1-octanol, 0.02 M PBS, pH 7.4) was shaken mechanically (500 rpm, 10 min) and centrifuged (1000g, 5 min), and samples from each layer (400 μL, n = 4) were measured with a γ-counter. The log D7.4 was calculated as a distribution between the two layers at pH 7.4. [^18F]6 (10 MBq, 40 nmol) diluted with 0.01 M PBS at pH 7.4 (≤1% ethanol, 5300 μL) was incubated for 180 min. At selected time points (5, 30, 60, 90, 120, 150, and 180 min), a sample (100 μL) was injected to radio-HPLC. [^18F]14 and [^18F]15 (29 MBq, 10 nmol) diluted in 2000 μL of 0.01 M PBS (≤1% ethanol) were left to incubate. A sample of [^18F]14 (100 μL) after 9 hours and [^18F]15 at selected time points between 30 and 335 min were injected into HPLC (method A). [^18F]15 (0.6 MBq, 0.134 nmol, 200 μL) formulated in ≤5% EtOH-1 × PBS was added and incubated in 2000 μL of PBS-50% human plasma at 37 °C. A 100 μL sample (at 60, 120, 180, and 240 min, n = 2) was diluted with 200 μL of cold acetonitrile and centrifuged (10,000g, 5 min). After centrifugation, a 100 μL sample of the supernatant was injected for radio-HPLC analysis.
# [2] = Lipophilicity, shake-flask log D7.4 (1-octanol/PBS); assay type: physicochemical; conditions: 1-octanol/PBS pH 7.4, n = 4
# Description: as §1, with “analysis. […]” for “analysis.”
# Lipophilicity. The lipophilicities were determined with the shake-flask method as a distribution profile between 0.01 M PBS and octanol at pH 7.4. The distribution of the radiolabeled compound between the octanol and the PBS layers was calculated according
# AR42J xenografts = assay: Ex vivo biodistribution of [18F]14 and [18F]15; assay type: in vivo, Rj:NMRI-Foxn1^nu/nu mice
# Description: (§2) [^18F]14 and [^18F]15 in ≤4% ethanol–0.01 M PBS were administered intravenously (1.2 ± 0.0 and 2.0 ± 0.1 MBq, respectively, 0.2 nmol, 150 μL) to AR42J tumor-bearing Rj:NMRI-Foxn1^nu/nu mice. At predetermined time points (t = 30, 60, 120, and 240 min), animals were euthanized with CO2 asphyxiation and cervical dislocation, and then the organs were harvested, washed with water, and blotted dry, following with weighing and γ counting from which the % ID/g in tissues was determined.
# [3] = Ex vivo biodistribution of [18F]14 and [18F]15; assay type: in vivo, Rj:NMRI-Foxn1^nu/nu mice; conditions: mouse, iv, 0.2 nmol; for tissue to tissue ratio at 1 h: Rj:NMRI-Foxn1^nu/nu, tumor (AR42J xenograft) / blood, total radioactivity, read-out: T/blood ratio; for tissue to tissue ratio at 1 h / tissue uptake at 1 h: 60 min post injection; for tissue uptake at 1 h / tissue uptake at 2 h: i.v.; for tissue uptake at 2 h: 120 min post injection
# Description: as §2
compound,measurement,setting,value
C[C@@H](O)[C@@H]1NC(=O)[C@H](CCCCN)NC(=O)[C@@H](Cc2c[nH]c3ccccc23)NC(=O)[C@H](Cc2ccc(O)cc2)NC(=O)[C@@H](NC(=O)[C@@H](Cc2ccccc2)NC(=O)CCOCCOCCOCCOCCON=Cc2ccc(C(=O)NCCOCCOCCOCCNC(=O)OC3CCCc4cnnc(-c5ccc(CC(=O)NCC[N+](C)(C)C[B-](F)(F)F)cc5)c4CC3)cc2)CSSC[C@@H](C(=O)N[C@H](CO)[C@@H](C)O)NC1=O (stereo partly drawn) [[^18F]15],stability in the formulated solution,[1],stable
same,log D7.4,[2],−0.73 ± 0.12
same,logD,[2],-0.7 ± 0.1
same,urine,"AR42J xenografts; 60 min post injection, i.v., baseline",174.2 ± 73.4 % ID/g
same,defluorination in vivo (in words),AR42J xenografts; judged from bone uptake,no indication of defluorination
same,tissue to tissue ratio at 1 h,[3]; blocked,0.4
same,tissue to tissue ratio at 1 h,[3]; baseline,0.5
same,tissue uptake at 1 h,"[3]; baseline, read-out: blood",9.6 ± 3.3 %ID/g
same,tissue uptake at 1 h,"[3]; baseline, read-out: brain",0.3 ± 0.1 %ID/g
same,tissue uptake at 1 h,"[3]; baseline, read-out: gallbladder",9.1 ± 7 %ID/g
same,tissue uptake at 1 h,"[3]; baseline, read-out: heart",2.6 ± 0.6 %ID/g
same,tissue uptake at 1 h,"[3]; baseline, read-out: kidney",21 ± 4.5 %ID/g
same,tissue uptake at 1 h,"[3]; baseline, read-out: liver",19 ± 5.4 %ID/g
same,tissue uptake at 1 h,"[3]; baseline, read-out: lung",5.4 ± 2.3 %ID/g
same,tissue uptake at 1 h,"[3]; baseline, read-out: muscle",1.1 ± 0.9 %ID/g
same,tissue uptake at 1 h,"[3]; baseline, read-out: pancreas",1.6 ± 0.5 %ID/g
same,tissue uptake at 1 h,"[3]; baseline, read-out: skin",2.4 ± 0.9 %ID/g
same,tissue uptake at 1 h,"[3]; baseline, read-out: spleen",1.4 ± 0.3 %ID/g
same,tissue uptake at 1 h,"[3]; baseline, read-out: urine",~174 %ID/g
same,tissue uptake at 1 h,"[3]; blocked with octreotide, read-out: blood",7.2 ± 2.5 %ID/g
same,tissue uptake at 1 h,"[3]; blocked with octreotide, read-out: brain",0.2 ± 0.1 %ID/g
same,tissue uptake at 1 h,"[3]; blocked with octreotide, read-out: gallbladder",18.8 ± 10.3 %ID/g
same,tissue uptake at 1 h,"[3]; blocked with octreotide, read-out: heart",2.1 ± 0.5 %ID/g
same,tissue uptake at 1 h,"[3]; blocked with octreotide, read-out: kidney",15.9 ± 2.7 %ID/g
same,tissue uptake at 1 h,"[3]; blocked with octreotide, read-out: liver",11.8 ± 4.7 %ID/g
same,tissue uptake at 1 h,"[3]; blocked with octreotide, read-out: lung",3.6 ± 1.4 %ID/g
same,tissue uptake at 1 h,"[3]; blocked with octreotide, read-out: muscle",0.5 ± 0.1 %ID/g
same,tissue uptake at 1 h,"[3]; blocked with octreotide, read-out: pancreas",0.9 ± 0.5 %ID/g
same,tissue uptake at 1 h,"[3]; blocked with octreotide, read-out: skin",1.6 ± 0.2 %ID/g
same,tissue uptake at 1 h,"[3]; blocked with octreotide, read-out: spleen",0.9 ± 0.2 %ID/g
same,tissue uptake at 1 h,"[3]; blocked with octreotide, read-out: urine",303 ± 146 %ID/g
same,tissue uptake at 1 h,"[3]; large intestine with contents, baseline, read-out: L. I. (+cont.), large intestine",1 ± 0.7 %ID/g
same,tissue uptake at 1 h,"[3]; large intestine with contents, blocked with octreotide, read-out: L. I. (+cont.), large intestine",0.7 ± 0.3 %ID/g
same,tissue uptake at 1 h,"[3]; occipital bone, baseline, read-out: bone, occipital",0.9 ± 0.3 %ID/g
same,tissue uptake at 1 h,"[3]; occipital bone, blocked with octreotide, read-out: bone, occipital",1 ± 0.3 %ID/g
same,tissue uptake at 2 h,"[3]; occipital bone, read-out: bone, occipital",0.6 ± 0.1 %ID/g
same,tissue uptake at 1 h,"[3]; small intestine with contents, baseline, read-out: S. I. (+cont.), small intestines",3.6 ± 2.1 %ID/g
same,tissue uptake at 1 h,"[3]; small intestine with contents, blocked with octreotide, read-out: S. I. (+cont.), small intestines",5 ± 1.7 %ID/g
same,tissue uptake at 1 h,"[3]; stomach with contents, baseline, read-out: stomach (+cont.)",1.4 ± 0.8 %ID/g
same,tissue uptake at 1 h,"[3]; stomach with contents, blocked with octreotide, read-out: stomach (+cont.)",0.6 ± 0.1 %ID/g
same,tissue uptake at 1 h,"[3]; tibia bone, baseline, read-out: bone, tibia",1.1 ± 0.4 %ID/g
same,tissue uptake at 1 h,"[3]; tibia bone, blocked with octreotide, read-out: bone, tibia",0.8 ± 0.2 %ID/g
same,tissue uptake at 2 h,"[3]; tibia bone, read-out: bone, tibia",0.6 ± 0.4 %ID/g
same,tissue uptake at 1 h,"[3]; tumor, AR42J xenograft, baseline, read-out: tumor uptake",4.5 ± 1 %ID/g
same,tissue uptake at 1 h,"[3]; tumor, AR42J xenograft, blocked with octreotide, read-out: tumor uptake",3.1 ± 0.5 %ID/g
